Assays:
[1] = Downregulation of IL-1beta mRNA expression in H2O2- stimulated human HaCaT cells at 10 uM incubated for 6 hrs by SPE based fluorescence amplification assay relative to control; assay type: functional; conditions: time 30 hrs
HaCaT [2] = assay: Antioxidant activity in human HaCaT cells assessed as reduction in mean fluorescence intensity at 10 uM preincubated for 6 hrs followed by H2O2 stimulation at 600 uM measured after 24 hrs by cellROS staining based flow cytometry analysis; assay type: functional; conditions: time 30 hrs
Caspase-1 [3] = target: T1, Caspase-1 (Homo sapiens, UniProt P29466); assay: Binding affinity to recombinant human caspase-1 assessed as dissociation constant measured after 90 sec by SPR method
T1 sequence (P29466 whole entry): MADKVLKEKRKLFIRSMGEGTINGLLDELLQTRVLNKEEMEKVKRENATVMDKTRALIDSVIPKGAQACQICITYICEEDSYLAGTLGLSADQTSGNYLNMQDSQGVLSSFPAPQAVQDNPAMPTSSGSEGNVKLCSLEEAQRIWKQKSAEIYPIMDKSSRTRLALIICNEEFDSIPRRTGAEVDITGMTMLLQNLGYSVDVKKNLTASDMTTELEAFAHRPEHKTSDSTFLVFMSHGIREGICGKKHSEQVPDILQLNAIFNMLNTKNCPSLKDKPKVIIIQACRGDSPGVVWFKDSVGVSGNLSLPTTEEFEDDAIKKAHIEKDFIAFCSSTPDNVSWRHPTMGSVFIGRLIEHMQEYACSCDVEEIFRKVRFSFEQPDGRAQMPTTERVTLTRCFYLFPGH

HaCaT [4] = assay: Effect on cell cycle distribution in human HaCaT cells assessed as 4N cells at 10 uM pretreated for 6 hrs followed by H2O2 challenge for 24 hrs by propidium iodide staining based flow cytometry analysis (Rvb= 41.0%); assay type: functional; conditions: time 30 hrs
[5] = Cytotoxicity against human HaCaT cells assessed as cell viability at 1 to 10 uM incubated for 24 hrs followed by H2O2 stimulation by celltiter-glo assay relative to control; assay type: cell-based; conditions: dose 1-10 µM, read-out: Activity
HaCaT [6] = assay: Effect on cell cycle distribution in human HaCaT cells assessed as <2N cells at 10 uM pretreated for 6 hrs followed by H2O2 challenge for 24 hrs by propidium iodide staining based flow cytometry analysis (Rvb= 1.88%); assay type: functional; conditions: time 30 hrs
Caspase-1 (Homo sapiens) [7] = target: T2, Caspase-1 (Homo sapiens) (UniProt P29466); assay: Binding affinity to recombinant human caspase-1 assessed as association constant measured after 60 sec by SPR method
T2 sequence (whole entry): T1 sequence (P29466 whole entry)

HaCaT [8] = assay: Antioxidant activity in human HaCaT cells assessed as reduction in mean fluorescence intensity at 10 uM preincubated for 6 hrs followed by H2O2 stimulation at 400 uM measured after 24 hrs by cellROS staining based flow cytometry analysis; assay type: functional; conditions: time 30 hrs
HaCaT [9] = assay: Anti-pyroptosis activity in human HaCaT cells assessed as reduction in H2O2-induced LDH production at 1 uM incubated for 6 hrs followed by H2O2 stimulation measured after 24 hrs by LDH assay relative to control; assay type: functional; set-up: scale not given: the % may be the effect or the level left; conditions: time 30 hrs
HaCaT [10] = assay: Anti-pyroptosis activity in human HaCaT cells assessed as reduction in H2O2-induced LDH production at 10 uM incubated for 6 hrs followed by H2O2 stimulation measured after 24 hrs by LDH assay relative to control; assay type: functional; set-up: scale not given: the % may be the effect or the level left; conditions: time 30 hrs
HaCaT [11] = assay: Antiapoptotic activity in human HaCaT cells assessed as reduction in apoptotic cells at 10 uM incubated for 6 hrs followed by H2O2 stimulation measured after 24 hrs by Mitotracker red/annexin V double staining based flow cytometry analysis (Rvb= 12.1%); assay type: functional; set-up: scale not given: the % may be the effect or the level left; conditions: time 30 hrs
HaCaT [12] = assay: Cytoprotective activity against H2O2-induced oxidative stress in human HaCaT cells assessed as change in cellular ROS level at 10 uM incubated for 6 hrs followed by H2O2 stimulation measured after 24 hrs by DCF-DA dye based fluorescence analysis (reference value: 8.2); assay type: functional; conditions: time 30 hrs
Caspase-1 [13] = target: T1, Caspase-1; assay: Binding affinity to recombinant human caspase-1 assessed as dissociation constant at equilibrium measured after 30 sec by SPR method
HaCaT [14] = assay: Cytoprotective activity against H2O2-induced oxidative stress in human HaCaT cells assessed as change in cellular ROS level at 1 uM incubated for 6 hrs followed by H2O2 stimulation measured after 24 hrs by DCF-DA dye based fluorescence analysis (reference value: 8.2); assay type: functional; conditions: time 30 hrs
HaCaT [15] = assay: Antioxidant activity in human HaCaT cells assessed as reduction in mitochondria-derived ROS production by measuring mean fluorescence intensity at 10 uM preincubated for 6 hrs followed by H2O2 stimulation at 600 uM measured after 24 hrs by mitoSOX staining based flow cytometry analysis; assay type: functional; conditions: time 30 hrs
HaCaT [16] = assay: Antioxidant activity in human HaCaT cells assessed as reduction in mitochondria-derived ROS production by measuring mean fluorescence intensity at 10 uM preincubated for 6 hrs followed by H2O2 stimulation at 200 uM measured after 24 hrs by mitoSOX staining based flow cytometry analysis; assay type: functional; conditions: time 30 hrs
[17] = Inhibition of IL-1beta expression in H2O2- stimulated human HaCaT cells at 10 uM incubated for 6 hrs followed by H2O2 stimulation measured after 24 hrs by ELISA relative to control; assay type: functional; conditions: time 30 hrs
HaCaT [18] = assay: Effect on cell cycle distribution in human HaCaT cells assessed as accumulation of cells in G2-M phase at 10 uM pretreated for 6 hrs followed by H2O2 challenge for 24 hrs by propidium iodide staining based flow cytometry analysis relative to control; assay type: functional; conditions: time 30 hrs
HaCaT [19] = assay: Effect on cell cycle distribution in human HaCaT cells assessed as >4N cells at 10 uMpretreated for 6 hrs followed by H2O2 challenge for 24 hrs by propidium iodide staining based flow cytometry analysis (Rvb= 11.1%); assay type: functional; conditions: dose 10 µM; time 30 hrs
HaCaT [20] = assay: Antioxidant activity in human HaCaT cells assessed as reduction in mitochondria-derived ROS production by measuring mean fluorescence intensity at 10 uM preincubated for 6 hrs followed by H2O2 stimulation at 400 uM measured after 24 hrs by mitoSOX staining based flow cytometry analysis; assay type: functional; conditions: time 30 hrs
[21] = Downregulation of caspase-1 mRNA expression in H2O2- stimulated human HaCaT cells at 10 uM incubated for 6 hrs by SPE based fluorescence amplification assay relative to control; assay type: functional; conditions: time 30 hrs
HaCaT [22] = assay: Antioxidant activity in human HaCaT cells assessed as reduction in mean fluorescence intensity at 10 uM preincubated for 6 hrs followed by H2O2 stimulation at 200 uM measured after 24 hrs by cellROS staining based flow cytometry analysis; assay type: functional; conditions: time 30 hrs
HaCaT [23] = assay: Effect on cell cycle distribution in human HaCaT cells assessed as 2N cells at 10 uM pretreated for 6 hrs followed by H2O2 challenge for 24 hrs by propidium iodide staining based flow cytometry analysis (Rvb= 17.9%); assay type: functional; conditions: time 30 hrs
HaCaT [24] = assay: Cytoprotective activity against H2O2-induced oxidative stress in human HaCaT cells assessed as increase in cell viability at 10 uM incubated for 24 hrs followed by H2O2 stimulation by celltiter-glo assay relative to control; assay type: functional
Caspase-1 (Homo sapiens) [25] = target: T2, Caspase-1 (Homo sapiens); assay: Inhibition of caspase-1 activity in H2O2-stimulated human HaCaT cells assessed as reduction in enzyme activity at 10 uM using […] as a substrate measured after 2 hrs by colorimetric assay relative to control

## C=C(C)[C@@H]1CCC(C)=C[C@H]1c1c(O)cc(CCCCC)cc1O [CANNABIDIOL]
[1]
  Activity: 50.9%
HaCaT [2]
  Flu intensity: 171
Caspase-1 [3]
  Kd: 18.8 nM
HaCaT [4]
  Activity: 45.9%
[5]
  viability at 24 h, up to 10 µM: > 90%
HaCaT [6]
  Activity: 1.81%
Caspase-1 (Homo sapiens) [7]
  Ka: 416 M⁻¹ s⁻¹
HaCaT [8]
  Flu intensity: 96
HaCaT [9]
  Activity: 20.7%
HaCaT [10]
  Activity: 23.6%
HaCaT [11]
  Activity: 6.36%
HaCaT [12]
  fold change (FC): 5.13
Caspase-1 [13]
  Kd: 0.078 s⁻¹
HaCaT [14]
  fold change (FC): 3.96
HaCaT [15]
  Flu intensity: 73
HaCaT [16]
  Flu intensity: 75
[17]
  inhibition at 10 µM: 16.2%
HaCaT [18]
  Activity: 16.7%
HaCaT [19]
  Activity: 4.55%
HaCaT [20]
  Flu intensity: 78
[21]
  Activity: 32.9%
HaCaT [22]
  Flu intensity: 110
HaCaT [23]
  Activity: 20.5%
HaCaT [24]
  Activity: 48.6%
Caspase-1 (Homo sapiens) [25]
  inhibition: 15.7%
